In PubChem BioAssay (NCI):
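Briefly, cells in 96-well plates were exposed to five compound concentrations for 48 h, and endpoints were estimated by linear interpolation. GI50 marks 50% less growth. At the TGI there is no net growth.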

Tests used:
Assay in all cases: NCI-60 cell line screen, 48 h
786-0 renal = test system: 786-0 renal
A498 renal = test system: A498 renal
A549 NSCLC = test system: A549 NSCLC
ACHN renal = test system: ACHN renal
BT-549 breast = test system: BT-549 breast
CAKI-1 renal = test system: CAKI-1 renal
CCRF-CEM leukemia = test system: CCRF-CEM leukemia
COLO 205 colon = test system: COLO 205 colon
DU-145 prostate = test system: DU-145 prostate
EKVX NSCLC = test system: EKVX NSCLC
HCC-2998 colon = test system: HCC-2998 colon
HCT-116 colon = test system: HCT-116 colon
HCT-15 colon = test system: HCT-15 colon
HL-60(TB) leukemia = test system: HL-60(TB) leukemia
HOP-62 NSCLC = test system: HOP-62 NSCLC
HOP-92 NSCLC = test system: HOP-92 NSCLC
HS 578T breast = test system: HS 578T breast
HT29 colon = test system: HT29 colon
IGROV1 ovarian = test system: IGROV1 ovarian
K-562 leukemia = test system: K-562 leukemia
KM12 colon = test system: KM12 colon
LOX IMVI melanoma = test system: LOX IMVI melanoma
M14 melanoma = test system: M14 melanoma
MALME-3M melanoma = test system: MALME-3M melanoma
MCF7 breast = test system: MCF7 breast
MDA-MB-231 breast = test system: MDA-MB-231 breast
MDA-MB-435 = test system: MDA-MB-435
MOLT-4 leukemia = test system: MOLT-4 leukemia
NCI-H226 lung = test system: NCI-H226 lung
NCI-H23 lung = test system: NCI-H23 lung
NCI-H460 lung = test system: NCI-H460 lung
NCI-H522 lung = test system: NCI-H522 lung
NCI/ADR-RES ovarian = test system: NCI/ADR-RES ovarian
OVCAR-3 ovarian = test system: OVCAR-3 ovarian
OVCAR-4 ovarian = test system: OVCAR-4 ovarian
OVCAR-5 ovarian = test system: OVCAR-5 ovarian
OVCAR-8 ovarian = test system: OVCAR-8 ovarian
PC-3 prostate = test system: PC-3 prostate
RPMI-8226 leukemia = test system: RPMI-8226 leukemia
RXF 393 renal = test system: RXF 393 renal
SF-268 CNS = test system: SF-268 CNS
SF-295 CNS = test system: SF-295 CNS
SF-539 CNS = test system: SF-539 CNS
SK-MEL-2 melanoma = test system: SK-MEL-2 melanoma
SK-MEL-28 melanoma = test system: SK-MEL-28 melanoma
SK-MEL-5 melanoma = test system: SK-MEL-5 melanoma
SK-OV-3 ovarian = test system: SK-OV-3 ovarian
SN12C renal = test system: SN12C renal
SNB-19 CNS = test system: SNB-19 CNS
SNB-75 CNS = test system: SNB-75 CNS
SR leukemia = test system: SR leukemia
SW-620 colon = test system: SW-620 colon
T-47D breast = test system: T-47D breast
TK-10 renal = test system: TK-10 renal
U251 CNS = test system: U251 CNS
UACC-257 melanoma = test system: UACC-257 melanoma
UACC-62 melanoma = test system: UACC-62 melanoma
UO-31 renal = test system: UO-31 renal

`CCSc1ccc2c(c1)N(CCCN1CCN(C)CC1)c1ccccc1S2` showed a GI50 (786-0 renal) of 2.61 µM, a TGI (786-0 renal) of 7.6 µM and a GI50 (A498 renal) of 1.83 µM. For the same molecule, the TGI (A498 renal) was 10.2 µM, the GI50 (A549 NSCLC) was 3.21 µM and the TGI (A549 NSCLC) was 10.5 µM. For the same molecule, the GI50 (ACHN renal) was 2.49 µM, the TGI (ACHN renal) was 6.83 µM and the GI50 (BT-549 breast) was 4.75 µM. It also gave a TGI (BT-549 breast) of 18.9 µM, a GI50 (CAKI-1 renal) of 1.75 µM and a TGI (CAKI-1 renal) of 4.19 µM. The GI50 (CCRF-CEM leukemia) was 2.56 µM, the TGI (CCRF-CEM leukemia) was 7.1 µM and the GI50 (COLO 205 colon) was 1.76 µM. The TGI (COLO 205 colon) was 3.37 µM, the GI50 (DU-145 prostate) was 3.82 µM and the TGI (DU-145 prostate) was 14.2 µM. For the same molecule, the GI50 (EKVX NSCLC) was 6.04 µM, the TGI (EKVX NSCLC) was 22.6 µM and the GI50 (HCC-2998 colon) was 1.7 µM. It also gave a TGI (HCC-2998 colon) of 3.28 µM, a GI50 (HCT-116 colon) of 2.04 µM and a TGI (HCT-116 colon) of 4.4 µM. It also gave a GI50 (HCT-15 colon) of 2.06 µM, a TGI (HCT-15 colon) of 4.98 µM and a GI50 (HL-60(TB) leukemia) of 1.83 µM. It also gave a TGI (HL-60(TB) leukemia) of 4.61 µM, a GI50 (HOP-62 NSCLC) of 2.84 µM and a TGI (HOP-62 NSCLC) of 8.15 µM. For the same molecule, the GI50 (HOP-92 NSCLC) was 1.85 µM, the TGI (HOP-92 NSCLC) was 7.06 µM and the GI50 (HS 578T breast) was 2 µM. It also gave a TGI (HS 578T breast) of 5.56 µM, a GI50 (HT29 colon) of 1.81 µM and a TGI (HT29 colon) of 3.44 µM. For the same molecule, the GI50 (IGROV1 ovarian) was 2.19 µM, the TGI (IGROV1 ovarian) was 5.41 µM and the GI50 (K-562 leukemia) was 2.39 µM. The TGI (K-562 leukemia) was greater than 100 µM, the GI50 (KM12 colon) was 1.87 µM and the TGI (KM12 colon) was 3.56 µM. It also gave a GI50 (LOX IMVI melanoma) of 1.67 µM, a TGI (LOX IMVI melanoma) of 3.16 µM and a GI50 (M14 melanoma) of 1.88 µM. For the same molecule, the TGI (M14 melanoma) was 3.67 µM, the GI50 (MALME-3M melanoma) was 1.58 µM and the TGI (MALME-3M melanoma) was 3.35 µM. The GI50 (MCF7 breast) was 1.79 µM, the TGI (MCF7 breast) was 3.43 µM and the GI50 (MDA-MB-231 breast) was 2 µM. The TGI (MDA-MB-231 breast) was 4.95 µM, the GI50 (MDA-MB-435) was 1.72 µM and the TGI (MDA-MB-435) was 3.47 µM. The GI50 (MOLT-4 leukemia) was 2.64 µM, the TGI (MOLT-4 leukemia) was 6.53 µM and the GI50 (NCI-H226 lung) was 7.17 µM. For the same molecule, the TGI (NCI-H226 lung) was 27.5 µM, the GI50 (NCI-H23 lung) was 6.58 µM and the TGI (NCI-H23 lung) was 21.3 µM. The GI50 (NCI-H460 lung) was 1.87 µM, the TGI (NCI-H460 lung) was 3.53 µM and the GI50 (NCI-H522 lung) was 1.7 µM. It also gave a TGI (NCI-H522 lung) of 3.5 µM, a GI50 (NCI/ADR-RES ovarian) of 3.68 µM and a TGI (NCI/ADR-RES ovarian) of 16.8 µM. The GI50 (OVCAR-3 ovarian) was 2.48 µM, the TGI (OVCAR-3 ovarian) was 7.12 µM and the GI50 (OVCAR-4 ovarian) was 3.63 µM. It also gave a TGI (OVCAR-4 ovarian) of 12.3 µM, a GI50 (OVCAR-5 ovarian) of 2.19 µM and a TGI (OVCAR-5 ovarian) of 6.44 µM. The GI50 (OVCAR-8 ovarian) was 4.39 µM, the TGI (OVCAR-8 ovarian) was 10.9 µM and the GI50 (PC-3 prostate) was 2.74 µM. For the same molecule, the TGI (PC-3 prostate) was 9.64 µM, the GI50 (RPMI-8226 leukemia) was 2.46 µM and the TGI (RPMI-8226 leukemia) was 6.96 µM. The GI50 (RXF 393 renal) was 2.82 µM, the TGI (RXF 393 renal) was 8.88 µM and the GI50 (SF-268 CNS) was 3.96 µM. For the same molecule, the TGI (SF-268 CNS) was 16.9 µM, the GI50 (SF-295 CNS) was 2.2 µM and the TGI (SF-295 CNS) was 5.97 µM. For the same molecule, the GI50 (SF-539 CNS) was 1.83 µM, the TGI (SF-539 CNS) was 3.76 µM and the GI50 (SK-MEL-2 melanoma) was 3.25 µM. For the same molecule, the TGI (SK-MEL-2 melanoma) was 8.49 µM, the GI50 (SK-MEL-28 melanoma) was 1.73 µM and the TGI (SK-MEL-28 melanoma) was 3.27 µM. The GI50 (SK-MEL-5 melanoma) was 1.73 µM, the TGI (SK-MEL-5 melanoma) was 3.16 µM and the GI50 (SK-OV-3 ovarian) was 10.4 µM. It also gave a TGI (SK-OV-3 ovarian) of 24 µM, a GI50 (SN12C renal) of 4.54 µM and a TGI (SN12C renal) of 18.4 µM. It also gave a GI50 (SNB-19 CNS) of 3.16 µM, a TGI (SNB-19 CNS) of 12 µM and a GI50 (SNB-75 CNS) of 1.79 µM. It also gave a TGI (SNB-75 CNS) of 5.5 µM, a GI50 (SR leukemia) of 2.71 µM and a TGI (SR leukemia) of 8.65 µM. The GI50 (SW-620 colon) was 1.88 µM, the TGI (SW-620 colon) was 3.65 µM and the GI50 (T-47D breast) was 2.17 µM. It also gave a TGI (T-47D breast) of 5.79 µM, a GI50 (TK-10 renal) of 1.73 µM and a TGI (TK-10 renal) of 3.27 µM. The GI50 (U251 CNS) was 2.05 µM, the TGI (U251 CNS) was 4.64 µM and the GI50 (UACC-257 melanoma) was 1.81 µM. The TGI (UACC-257 melanoma) was 3.48 µM, the GI50 (UACC-62 melanoma) was 1.67 µM and the TGI (UACC-62 melanoma) was 3.34 µM. The GI50 (UO-31 renal) was 2.1 µM and the TGI (UO-31 renal) was 10.1 µM.
